Reference: patent US5563155A, “Individual stereosiomers of 7-[3-(aminoalkyl)-1-pyrrolidinyl]-quinolones and naphthyridones as antibacterial agents” (Warner-Lambert Company, priority 1995, dated 1996)
Values after ≈ are worked out from the molar mass of the structure shown. Structures can show the parent of a compound that is named as a salt. Where two headings read alike, the source gives them in different places.

How the values were obtained:
Ent. cloacae MA2646 = assay: in vitro antibacterial activity, microtitration dilution (MIC), Ent. cloacae MA2646; type: cell-based; details: Enterobacter cloacae, read-out: minimum inhibiting concentration (MIC)
From the text: (§1) The in vitro antibacterial activity, is obtained by the microtitration dilution method as described in Heifetz, et al., Antimicr. Agents & Chemother., 6, 124 (1974), which is incorporated herein by reference.
(§2) By use of the above methods, the following minimum inhibiting concentration values (MICs in μg/mL), PD50 's in mg/kg, no effect phototoxicity dose in mg/kg and the cytotoxicity IC50 in μg/mL were obtained for representative enantiomers of the invention and compounds of the prior art as shown in the table.

Esch. coli Vogel [1] = assay: in vitro antibacterial activity, microtitration dilution (MIC), Esch. coli Vogel; type: cell-based; details: Escherichia coli, read-out: minimum inhibiting concentration (MIC)
From the text: as §1, §2

Klebs. pneumoniae MGH-2 = assay: in vitro antibacterial activity, microtitration dilution (MIC), Klebs. pneumoniae MGH-2; type: cell-based; details: Klebsiella pneumoniae, MGH2, read-out: minimum inhibiting concentration (MIC)
From the text: as §1, §2

Prot. rettgeri M 1771 = assay: in vitro antibacterial activity, microtitration dilution (MIC), Prot. rettgeri M 1771; type: cell-based; details: Providencia rettgeri, M1771, read-out: minimum inhibiting concentration (MIC)
From the text: as §1, §2

Pseud. aeruginosa UI-18 = assay: in vitro antibacterial activity, microtitration dilution (MIC), Pseud. aeruginosa UI-18; type: cell-based; details: Pseudomonas aeruginosa, UI18, read-out: minimum inhibiting concentration (MIC)
From the text: as §1, §2

Staph. aureus H 228 = assay: in vitro antibacterial activity, microtitration dilution (MIC), Staph. aureus H 228; type: cell-based; details: Staphylococcus aureus, H228, read-out: minimum inhibiting concentration (MIC)
From the text: as §1, §2

Staph. aureus UC-76 = assay: in vitro antibacterial activity, microtitration dilution (MIC), Staph. aureus UC-76; type: cell-based; details: Staphylococcus aureus, UC76, read-out: minimum inhibiting concentration (MIC)
From the text: as §1, §2

Strep. faecalis MGH-2 = assay: in vitro antibacterial activity, microtitration dilution (MIC), Strep. faecalis MGH-2; type: cell-based; details: Enterococcus faecalis, MGH2, read-out: minimum inhibiting concentration (MIC)
From the text: as §1, §2

Strep. pheumoniae SV-1 [2] = assay: in vitro antibacterial activity, microtitration dilution (MIC), Strep. pneumoniae SV-1; type: cell-based; details: Streptococcus pneumoniae, SV1, read-out: minimum inhibiting concentration (MIC)
From the text: as §1, §2

Strep. pyogenes C-203 [3] = assay: in vitro antibacterial activity, microtitration dilution (MIC), Strep. pyogenes C-203; type: cell-based; details: Streptococcus pyogenes, C203, read-out: minimum inhibiting concentration (MIC)
From the text: as §1, §2

Esch. coli Vogel [4] = assay: median protective dose in mice given lethal systemic infections, Esch. coli Vogel; type: in vivo; details: Escherichia coli, single dose at time of challenge, read-out: median protective dose (PD50)
Experimental: (§3) The in vivo activity is obtained when the compounds are tested according to the procedure of Miller, et al (Proc. Soc. Exp. Biol. Med. 57, 261, 1944). The median protective dose (PD50) was determined in mice given lethal systemic infections. Single doses of compound were given at time of challenge.
as §2
(§4) The in vivo data as PD50 s are reported below the line of MICs for the same compound.

Strep. pyogenes C-203 [5] = assay: median protective dose in mice given lethal systemic infections, Strep. pyogenes C-203; type: in vivo; details: Streptococcus pyogenes, single dose at time of challenge, read-out: median protective dose (PD50)
Experimental: as §3, §2, §4

[6] = cytotoxicity, hamster V-79 cells, colony reduction; type: cell-based; details: 3 hours treatment, colonies counted after 5 days, read-out: Cytotox (cytotoxicity IC50)
Experimental: The cytotoxicity data is obtained using hamster V-79 cells. The cells were suspended in tissue culture medium and grown overnight. Cells were treated with drug for 3 hours, washed free of drug and then replated, and the colonies counted after 5 days. The concentration of drug that reduced colones by 50% relative to control was recorded.
as §2

Strep. pheumoniae SV-1 [7] = assay: median protective dose in mice given lethal systemic infections, Strep. pneumoniae SV-1; type: in vivo; details: Streptococcus pneumoniae, single dose at time of challenge, read-out: median protective dose (PD50)
Experimental: as §3, §2, §4

Row | Compound | MIC (Ent. cloacae MA2646) [µg/mL] | MIC (Esch. coli Vogel [1]) [µg/mL] | MIC (Klebs. pneumoniae MGH-2) [µg/mL] | MIC (Prot. rettgeri M 1771) [µg/mL] | MIC (Pseud. aeruginosa UI-18) [µg/mL] | MIC (Staph. aureus H 228) [µg/mL] | MIC (Staph. aureus UC-76) [µg/mL] | MIC (Strep. faecalis MGH-2) [µg/mL] | MIC (Strep. pheumoniae SV-1 [2]) [µg/mL] | MIC (Strep. pyogenes C-203 [3]) [µg/mL] | ED50 (Esch. coli Vogel [4]; PO) [mg/kg] | ED50 (Esch. coli Vogel [4]; SC) [mg/kg] | ED50 (Strep. pyogenes C-203 [5]; C203, PO) [mg/kg] | ED50 (Strep. pyogenes C-203 [5]; C203, SC) [mg/kg] | CC50 at 3 h [6] [µg/mL] | ED50 (Strep. pheumoniae SV-1 [7]; SV1, PO) [mg/kg] | ED50 (Strep. pheumoniae SV-1 [7]; SV1, SC) [mg/kg]
1 | CCN[C@H](C)[C@H]1CCN(c2nc3c(cc2F)c(=O)c(C(=O)O)cn3C2CC2)C1 [Example 79, 3S,1R-1-cyclopropyl-7-[3-[1-(ethylamino)ethyl]-1-pyrrolidinyl]-6-fluoro-1,4-dihydro-4-oxo-1,8-naphthyridine-3-carboxylic acid] | 0.1 (≈ 0.257 µM) | 0.1 (≈ 0.257 µM) | 0.2 (≈ 0.515 µM) | 0.8 (≈ 2.06 µM) | 1.6 (≈ 4.12 µM) | 0.1 (≈ 0.257 µM) | 0.025 (≈ 0.0644 µM) | 0.05 (≈ 0.129 µM) | 0.025 (≈ 0.0644 µM) | 0.05 (≈ 0.129 µM) | 2 | 1 | 2 | 2 | – | – | –
2 | CN[C@H](C)[C@H]1CCN(c2c(F)cc3c(=O)c(C(=O)O)cn(C4CC4)c3c2OC)C1 [Example 38, 3S,1R-1-cyclopropyl-6-fluoro-7-[3-(1-N-methylaminoethyl)-1-pyrrolidinyl]-8-methoxy-1,4-dihydro-4-oxo-3-quinolinecarboxy acid] | 0.2 (≈ 0.496 µM) | 0.2 (≈ 0.496 µM) | 0.4 (≈ 0.991 µM) | 0.8 (≈ 1.98 µM) | 3.1 (≈ 7.68 µM) | 0.05 (≈ 0.124 µM) | 0.013 (≈ 0.0322 µM) | 0.05 (≈ 0.124 µM) | 0.025 (≈ 0.062 µM) | 0.025 (≈ 0.062 µM) | – | – | 6 | 1 | 130 (≈ 322 µM) | – | –
3 | CN[C@@H](C)[C@@H]1CCN(c2nc3c(cc2F)c(=O)c(C(=O)O)cn3C2CC2)C1 [Example 21, 3R,1S-1-cyclopropyl-6-fluoro-7-[3-(1-N-methylaminoethyl)-1-pyrrolidinyl]-1,4-dihydro-4-oxo-1,8-naphthyridine-3-carboxylic acid] | 0.1 (≈ 0.267 µM) | 0.1 (≈ 0.267 µM) | 0.2 (≈ 0.534 µM) | 0.4 (≈ 1.07 µM) | 1.6 (≈ 4.27 µM) | 0.05 (≈ 0.134 µM) | 0.0013 (≈ 0.00347 µM) | 0.05 (≈ 0.134 µM) | 0.013 (≈ 0.0347 µM) | 0.025 (≈ 0.0668 µM) | 1 | 0.5 | 2 | 2 | 130 (≈ 347 µM) | – | –
4 | CCN[C@@H](C)[C@@H]1CCN(c2c(F)c(N)c3c(=O)c(C(=O)O)cn(C4CC4)c3c2F)C1 [Example 53, 3R,1S-5-amino-1-cyclopropyl-7-[3-(1-N-ethylaminoethyl)-1-pyrrolidinyl]-6,8-difluoro-1,4-dihydro-4-oxo-3-quinolinecarboxylic acid] | 0.025 (≈ 0.0595 µM) | 0.025 (≈ 0.0595 µM) | 0.05 (≈ 0.119 µM) | 0.1 (≈ 0.238 µM) | 0.8 (≈ 1.9 µM) | ≤ 0.003 | ≤ 0.003 | 0.013 (≈ 0.0309 µM) | ≤ 0.003 | ≤ 0.003 | 1.6 | 0.8 | 0.3 | 0.3 | – | – | –
5 | CCN[C@@H](C)[C@@H]1CCN(c2nc3c(cc2F)c(=O)c(C(=O)O)cn3-c2ccc(F)cc2F)C1 [Example 50, 3R,1S-7-[3-(1-N-ethylaminoethyl)-1-pyrrolidinyl]-1-(2,4-difluorophenyl)-6-fluoro-1,4-dihydro-4-oxo-1,8-naphthyridine-3-carboxylic acid] | 0.8 (≈ 1.74 µM) | 0.4 (≈ 0.869 µM) | 0.8 (≈ 1.74 µM) | 1.6 (≈ 3.47 µM) | 3.1 (≈ 6.73 µM) | 0.05 (≈ 0.109 µM) | 0.013 (≈ 0.0282 µM) | 0.2 (≈ 0.434 µM) | 0.1 (≈ 0.217 µM) | 0.1 (≈ 0.217 µM) | – | – | – | – | – | 2 | 2
6 | Cc1c(F)c(N2CC[C@@H]([C@H](C)N)C2)cc2c1c(=O)c(C(=O)O)cn2-c1ccc(F)cc1F [Example 65, 3R,1S-7-[3-(1-aminoethyl)-1-pyrrolidinyl]-1-(2,4-difluorophenyl)-6-fluoro-1,4-dihydro-5-methyl-4-oxo-3-quinolinecarboxylic acid, monohydrochloride] | 0.1 | 0.1 | 0.2 | 0.4 | 0.8 | 0.013 | 0.006 | 0.025 | 0.003 | 0.003 | – | – | 5 | 0.6 | 10 | – | –
